# Results from PubChem BioAssay (NCI).
# Values joined by “and” are separate entries in the source; they are usually repeats but may differ in a detail not shown here. Identical values can stand only once.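 Growth conditions: 96-well plates. Treatment: test compound, 48 hours, 5 concentrations. Analysis: linear interpolation between bracketing concentrations; unreached endpoints set to highest concentration. Here, GI50 denotes the concentration required for 50% inhibition of growth. Definition used: TGI = concentration required for complete inhibition of growth.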
# How the values were obtained:
# Assay in all cases: NCI-60 cell line screen, 48 h
# [1] = test system: CAKI-1 renal
# [2] = test system: KM12 colon
# [3] = test system: SNB-19 CNS
# [4] = test system: SR leukemia
# [5] = test system: PC-3 prostate
# [6] = test system: HOP-62 NSCLC
# [7] = test system: SK-MEL-2 melanoma
# [8] = test system: SK-MEL-5 melanoma
# [9] = test system: HT29 colon
# [10] = test system: HOP-92 NSCLC
Compound,GI50 [1],TGI [1] [µM],GI50 [2],TGI [2],GI50 [3],TGI [3] [µM],GI50 [4],TGI [4],GI50 [5],TGI [5] [µM],GI50 [6],TGI [6],GI50 [7],TGI [7] [µM],GI50 [8],TGI [8],GI50 [9],TGI [9],GI50 [10] [µM],TGI [10] [µM]
O=C(/C=C/c1ccco1)Nc1ncc(Cc2cccc(C(F)(F)F)c2)s1,0.0464 µM,7.93,0.0432 µM,> 31.8 µM,0.1 µM,> 44.5,0.0334 µM,3.67 µM,0.055 µM,> 44.3,0.0965 µM,6.32 µM,0.0966 µM,5.28,0.0512 µM,1.81 µM,0.0388 µM,> 33 µM,–,–
CN(C)c1ccc(/C=C(\C#N)c2ccccc2)cc1,0.244 µM and 0.586 µM and 0.591 µM,–,0.307 µM and 0.425 µM and 0.437 µM,21.8 µM and > 100 µM,0.481 µM and 0.68 µM and 0.92 µM,> 100,0.0866 µM and 0.308 µM and 0.255 µM,19 µM and 37.6 µM,0.272 µM and 1.92 µM and 0.956 µM,> 100,1.37 µM and 0.993 µM and 0.567 µM,59.9 µM and > 100 µM,0.453 µM and 0.465 µM,> 100,0.398 µM and 0.45 µM and 0.345 µM,26.3 µM and 18 µM and 17.8 µM,0.33 µM and 0.352 µM and 0.347 µM,10.9 µM and 71.3 µM,–,–
COc1cccc(CCNC(=O)CC(c2ccccc2)(c2ccccc2)c2ccccc2)c1,3.16 µM,50.9,4.75 µM,> 100 µM,90.1 µM,> 100,–,–,6.12 µM,> 100,59.4 µM,> 100 µM,4.41 µM,> 100,4.84 µM,> 100 µM,–,–,> 100,> 100
CCc1cccc(C)c1N1C(=O)C(=O)C(c2nc3ccccc3o2)/C(=N/NC(=S)NN)C1=O (stereo not drawn),–,> 100,–,> 100 µM,–,> 100,–,–,–,–,–,> 100 µM,–,> 100,–,> 100 µM,–,> 100 µM,–,> 100
[N-]=[N+]=NCCCn1c2c(c3ccc([N+](=O)[O-])cc3c1=O)C(=O)c1cc(I)ccc1-2,9.38 µM,> 100,18 µM,> 100 µM,4.62 µM,> 100,0.344 µM,2.87 µM,11 µM,> 100,1.82 µM,38.8 µM,71.2 µM,> 100,3.77 µM,15.5 µM,10.7 µM,> 100 µM,–,–
CC12CC/C(=N/NC(N)=O)C3C1CCCC32,–,> 100,–,> 100 µM,–,> 100,–,> 100 µM,–,–,–,> 100 µM,–,> 100,–,> 100 µM,–,> 100 µM,–,> 100
CCC(C)C(=O)O[C@H]1C(=O)O[C@@H]2C[C@H]3C(C)=CC(=O)[C@@H](O)[C@]3(C)[C@H]3[C@@H](O)[C@H](O)[C@@]4(C)OC[C@]32[C@@H]14 (stereo partly drawn),–,–,–,0.138 µM,–,< 0.0291,–,< 0.0204 µM,–,0.0143,–,–,–,< 0.0507,–,< 0.0338 µM,–,0.0272 µM,–,–
CN(C)CCCOc1ccc(/C=C2/CCC/C(=C/c3ccc(OCCCN(C)C)cc3)C2=O)cc1,–,–,–,2.93 µM,–,4.74,–,–,–,–,–,4.49 µM,–,3.69,–,3.92 µM,–,–,–,9.72
CCC[CH2][Sn]1([CH2]CCC)[O]C(=O)CN=C(C)c2ccccc2[O]1,0.534 µM,2.1,1.27 µM,2.58 µM,1.09 µM,2.29,–,–,–,–,5.21 µM,> 100 µM,0.5 µM,1.55,2.55 µM,> 100 µM,1.66 µM,3.1 µM,0.978,2.18
COc1ccc(CN2C(=O)/C(=C\C(=O)c3ccc(OCCN4CCCC4)cc3)c3ccccc32)cc1,11.8 µM,27,11.1 µM,34.7 µM,3.83 µM,15.1,–,–,2.35 µM,4.83,20.8 µM,43.9 µM,17.1 µM,37.4,16.2 µM,38.8 µM,–,–,2.09,4.9
COC(=O)C(=O)C(C#N)c1cccc(Cl)c1 (stereo not drawn),–,> 100,–,> 100 µM,–,> 100,–,> 100 µM,–,–,–,> 100 µM,–,> 100,–,> 100 µM,–,> 100 µM,–,–
CC12CCCC(C#N)(C1)OC2=O (stereo not drawn),–,> 100,–,> 100 µM,–,> 100,–,> 100 µM,–,–,–,> 100 µM,–,> 100,–,> 100 µM,–,> 100 µM,–,> 100
Cc1cc2c(C(=O)NCC#N)cccc2n1-c1nc2c(c(NCc3ccccc3)n1)CCCC2,0.666 µM,> 100,0.242 µM,0.643 µM,0.499 µM,2.91,0.257 µM,10.3 µM,–,–,–,–,0.231 µM,0.644,0.118 µM,0.245 µM,0.303 µM,1.05 µM,–,–
Nc1nc(=S)c2ncn(C3OC(CO)C(O)C3O)c2[nH]1 (stereo not drawn),0.703 µM,5.88,1.79 µM,> 27.8 µM,33.1 µM,> 100,–,–,2.34 µM,> 100,0.273 µM,3.98 µM,10.5 µM,> 100,2.41 µM,10.8 µM,0.981 µM,> 100 µM,0.33,7.53
Cc1ccccc1C=NC12CC3CC(CC(C3)C1)C2,–,> 100,–,> 100 µM,–,> 100,–,–,–,–,–,> 100 µM,–,> 100,–,> 100 µM,–,> 100 µM,–,> 100
CC(=O)N(C)c1cc(NCc2ccccc2)ccc1OCc1ccccc1,–,38.6,–,47.4 µM,–,35.8,–,32.8 µM,–,–,–,> 100 µM,–,30.8,–,33.8 µM,–,43 µM,–,30
O=C(CN(Cc1ccccc1)Cc1ccccc1)N1CCc2c([nH]c3ccccc23)C1c1cccnc1 (stereo not drawn),–,> 100,–,26.3 µM,–,> 100,–,30.6 µM,–,–,–,> 100 µM,–,–,–,20.1 µM,–,19.7 µM,–,12.8
O=CC1CCC=CC1NC(=O)OCc1ccccc1 (stereo not drawn),–,> 100,–,> 100 µM,–,–,–,> 100 µM,–,–,–,> 100 µM,–,> 100,–,> 100 µM,–,> 100 µM,–,> 100
CCC1(OC(=O)CNC)C(=O)OCc2c1cc1n(c2=O)Cc2cc3ccccc3nc2-1 (stereo not drawn),–,–,–,1.46 µM,–,6.12,–,–,–,> 100,–,< 0.0143 µM,–,0.577,–,0.0337 µM,–,2.64 µM,–,1.56
N#CC(C(=O)/C(=N/NC(=O)c1ccccc1O)C(C#N)c1ccc(Br)cc1)c1ccc(Br)cc1 (stereo not drawn),–,–,–,25.5 µM,–,24.3,–,–,–,–,–,29.5 µM,–,25,–,21.5 µM,–,33.9 µM,–,31.1

Compound,GI50 [1],TGI [1] [µM],GI50 [2],TGI [2],GI50 [3],TGI [3] [µM],GI50 [4],TGI [4],GI50 [5],TGI [5] [µM],GI50 [6],TGI [6],GI50 [7],TGI [7] [µM],GI50 [8],TGI [8],GI50 [9],TGI [9],GI50 [10] [µM],TGI [10] [µM]
CN1CCN(Cc2ccc(NC(=O)c3cncc(C#Cc4c(N)ncc5c(F)cccc45)c3)cc2C(F)(F)F)CC1,0.86 µM,1.61,0.0133 µM,0.65 µM,0.867 µM,1.59,–,–,0.787 µM,1.6,1.28 µM,3.87 µM,0.809 µM,1.93,0.841 µM,1.55 µM,0.305 µM,1.08 µM,0.135,0.858
O=C1C(Cl)=C(Cl)C(=O)N1c1ccccc1Cl,–,> 60.9,–,> 100 µM,–,> 100,–,69.7 µM,–,–,–,> 100 µM,–,> 100,–,> 100 µM,–,> 100 µM,–,> 79.4
CC[O-].CC[O-].COc1ccc(C(=O)[CH-]C(C)=O)cc1OC.COc1ccc(C(=O)[CH-]C(C)=O)cc1OC.[Ti+4],33 µM,96.1,–,–,73 µM,> 100,31.1 µM,83.4 µM,–,–,46.2 µM,> 100 µM,78.3 µM,> 100,> 100 µM,> 100 µM,47.8 µM,> 100 µM,32.1,65.9
Cn1cnc([N+](=O)[O-])c1Sc1nc2ccccc2o1,–,6.19,–,20.5 µM,–,30.9,–,8.14 µM,–,–,–,> 94.4 µM,–,52.9,–,26.5 µM,–,12.9 µM,–,12.4
Cc1cc(Cl)ccc1NC(=O)CC1SC(=NC(=O)c2ccccc2Cl)NC1=O (stereo not drawn),–,33.9,–,–,–,> 100,–,34.5 µM,–,–,–,–,–,71.1,–,95.7 µM,–,45 µM,–,35.9
COC(=O)CC1C2(C)C3=C(C)C(c4ccoc4)CC3OC2C2OC(=O)C3(C)C=CC(=O)C1(C)C23 (stereo not drawn),–,2.15,–,3.55 µM,–,7.1,–,–,–,3.43,–,9.1 µM,–,3.58,–,3.03 µM,–,2.49 µM,–,5.52
O=C(Nc1ccccc1)n1cc(-c2ccccn2)c(N2CCOCC2)n1,–,49.7,–,62.7 µM,–,> 100,–,–,–,–,–,> 100 µM,–,–,–,> 100 µM,–,19.1 µM,–,> 100
N#CC(C#N)=Cc1ccc(C(O)P(=O)(O)O)cc1 (stereo not drawn),–,> 100,–,> 100 µM,–,> 100,–,–,–,–,–,> 100 µM,–,> 100,–,> 100 µM,–,> 100 µM,–,> 100
CC(=O)n1nnc2ccc([N+](=O)[O-])cc21,–,> 100,–,> 100 µM,–,> 100,–,> 100 µM,–,–,–,> 100 µM,–,> 100,–,> 100 µM,–,> 100 µM,–,> 100
Cn1nc(-c2ccccc2)c2c(/C=C/c3ccc(Cl)cc3)onc2c1=O,–,–,–,–,–,> 100,–,–,–,–,–,–,–,–,–,> 100 µM,–,> 100 µM,–,57.1
Cc1cncc(-c2nc(NCCc3c[nH]c4ccccc34)c3ncn(C(C)C)c3n2)c1,4.12 µM,30.4,3.36 µM,12.8 µM,11.5 µM,46.6,–,–,3.98 µM,35.8,6.01 µM,22.9 µM,2.83 µM,9.8,4.23 µM,15.5 µM,2.11 µM,5.17 µM,3.63,15.5
COC(=O)C(=NNc1ccccc1[N+](=O)[O-])C(=O)OC,–,> 100,–,> 100 µM,–,> 100,–,> 100 µM,–,–,–,> 100 µM,–,> 100,–,–,–,> 100 µM,–,> 100
CCOC(=O)NC(=O)c1cn(CCCCCCCCCCC(=O)NCCCN2CCN(CCCNC(=O)CCCCCCCCCCn3cc(C(=O)NC(=O)OCC)c(=O)[nH]c3=O)CC2)c(=O)[nH]c1=O,–,> 10,–,> 100 µM,–,> 100,–,> 100 µM,–,–,–,> 10 µM,–,> 100,–,–,–,> 100 µM,–,> 100
N#CC(C(=O)CCC(=O)Nc1ccc(Cl)cc1)c1ccc(Cl)cc1 (stereo not drawn),–,> 100,–,> 100 µM,–,> 100,–,–,–,–,–,> 100 µM,–,> 100,–,> 100 µM,–,> 100 µM,–,> 100
Cc1cc2nc3c(=O)[nH]c(=O)nc-3n(CC(O)C(O)C(O)CO)c2cc1N (stereo not drawn),–,–,–,> 100 µM,–,> 100,–,–,–,–,–,–,–,> 100,–,> 100 µM,–,> 100 µM,–,> 100
c1ccc(COCC[P+](c2ccccc2)(c2ccccc2)c2ccccc2)cc1,5.4 µM,23.1,0.501 µM,11.1 µM,1.03 µM,10.7,0.725 µM,11 µM,0.519 µM,5.32,3.59 µM,32.4 µM,1.93 µM,4.96,0.396 µM,1.61 µM,0.478 µM,8.3 µM,–,–
N#CCCN(C1=NN(C(=O)CC(=O)Nc2ccc(Cl)cc2)C(c2ccccc2)C1)c1ccc(Cl)cc1 (stereo not drawn),–,> 100,–,> 100 µM,–,> 100,–,> 100 µM,–,–,–,> 100 µM,–,> 100,–,> 100 µM,–,> 100 µM,–,> 100
O=C1c2cccc([N+](=O)[O-])c2C(=O)c2nccnc21,–,16.4,–,–,–,4.04,–,5.04 µM,–,–,–,–,–,2.9,–,1.13 µM,–,4.3 µM,–,18.6
O=C(O)CCC(=O)Oc1ccc(O)c2c1CCCC2=O,–,–,–,> 100 µM,–,> 100,–,> 100 µM,–,–,–,> 100 µM,–,> 100,–,> 100 µM,–,> 100 µM,–,–
